Assays:
hNIS = biological target: T1, hNIS (Homo sapiens, UniProt Q92911); test: Dynamic PET in matrigel suspension model, hNIS reporter; format: in vivo; settings: nude mice
T1 construct: expressed in transfected cells; host or cells: PC3-CAR cells infected in vitro with Ad-Track-hNIS (pAd-Track-CMV-NIS), implanted in matrigel into nude mice
T1 sequence (Q92911 1-643): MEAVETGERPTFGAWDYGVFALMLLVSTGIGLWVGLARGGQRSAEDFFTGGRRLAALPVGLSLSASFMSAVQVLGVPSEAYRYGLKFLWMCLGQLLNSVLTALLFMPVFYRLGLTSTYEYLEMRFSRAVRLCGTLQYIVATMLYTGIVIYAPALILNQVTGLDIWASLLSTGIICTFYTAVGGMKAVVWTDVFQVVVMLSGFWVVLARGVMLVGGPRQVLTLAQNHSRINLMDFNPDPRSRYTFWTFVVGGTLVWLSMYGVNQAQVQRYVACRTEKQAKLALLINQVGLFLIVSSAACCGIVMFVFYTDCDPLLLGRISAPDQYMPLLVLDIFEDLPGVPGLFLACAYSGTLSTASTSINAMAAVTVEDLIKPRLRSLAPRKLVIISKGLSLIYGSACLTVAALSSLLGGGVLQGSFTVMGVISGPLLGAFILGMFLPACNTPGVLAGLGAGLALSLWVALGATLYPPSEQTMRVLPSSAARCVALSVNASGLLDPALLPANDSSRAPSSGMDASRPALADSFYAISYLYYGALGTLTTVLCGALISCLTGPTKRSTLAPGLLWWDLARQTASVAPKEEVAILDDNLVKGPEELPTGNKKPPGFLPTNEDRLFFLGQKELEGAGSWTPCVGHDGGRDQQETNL
Method: (§1) Studies were performed according to protocols approved by the Animal Care and Use Committee at Johns Hopkins University. A matrigel suspension model was developed to enable imaging of similar numbers of cells in vivo. Four- to six-week-old athymic male nude mice (Harlan Laboratories Inc., Frederick, Md.) were used for all experiments. 4×10^6 infected cells were injected subcutaneously in the presence of Matrigel (BD Biosciences, Bedford, Mass.) at a 2:1 (cell:matrigel) ratio.
(§2) PET was performed for in vivo reporter comparison. […] [^124I]NaI was kindly provided by Dr. Jason Lewis (Memorial Sloan-Kettering Cancer Center, NY). Athymic nude mice contralaterally implanted with reporter or control expressing matrigel suspensions in the upper flanks were used for imaging. […] Mice were then placed in the prone position on the gantry of a GE eXplore VISTA small animal PET scanner (GE Healthcare Life Sciences, Pittsburgh, Pa.) and injected intravenously with ˜7.4 MBq (200 μCi) in 200 μL of PBS of each respective radiotracer. Images were acquired as a dynamic scan of 18 five-minute frames at 250 to 700 keV for ^18F and 400-700 keV for ^124I. Images were reconstructed using the FORE/2D-OSEM method (1 iteration, 16 subsets) and included correction for radioactive decay, scanner dead time, and scattered radiation. After PET imaging, the mobile mouse holder was placed on the gantry of an X-SPECT (Gamma Medica-Ideas, Salem, N.H.) small animal imaging device to acquire the corresponding CT. PET and CT data were co-registered using AMIDE software (sourceforge.net).
(§3) To compare reporter-probe systems in vivo, a matrigel suspension model was developed (FIG. 2). […] The contralateral cells masses were generally within 30% as measured by GFP imaging in vivo (FIG. 3).
(§4) The next day (48 hours after implantation), animals were subjected to a dynamic PET study whereby ˜7.4 MBq (200 μCi) of each respective radiotracer was administered intravenously and cellular uptake was quantified for a duration of 90 minutes. […]

HSV-sr39tk = test: Dynamic PET in matrigel suspension model, HSV-sr39tk reporter; format: in vivo, herpes simplex virus; settings: nude mice
Method: as §1, §2, §3, §4

[1] = test system: MDA-MB-231 cell lines transiently transfected with full-length and truncations of PSMA; test: In vitro radio uptake assay, cells transfected with non-viral PSMA vectors; format: cell-based; settings: 24 hours after transfection, 1 μCi
Method: The basic expression vectors (FIG. 8A) were tested for the ability to uptake a radio-labeled PSMA-targeted molecule (^125I-YC27). […] Twenty-four hours after the transfection, cells were treated with 1 μCi of ^125I-YC27, washed twice and the uptake was measured.

[2] = PC3-CAR cells in matrigel, PET, SUV ratio

## [124I-].[Na+] [[^124I]NaI]
hNIS; [2]
  peak target-to-background ratio relative to control cells: 3.13±0.20
  peak target-to-background ratio relative to muscle: 4.96±0.65
hNIS; dynamic PET
  time after which signal-to-noise ratio greater than two (relative to muscle) could be detected: 20 min

## Nc1nc2c(ncn2CCC(CO)C[18F])c(=O)[nH]1 (stereo not shown) [FHBG, 9-(4-[^18F]Fluoro-3-[hydroxymethyl]butyl)guanine]
HSV-sr39tk; [2]
  peak target-to-background ratio relative to control cells: 2.81±0.27
  peak target-to-background ratio relative to muscle: 4.99±0.38
HSV-sr39tk; dynamic PET
  time after which signal-to-noise ratio greater than two (relative to muscle) could be detected: 45 min

## O=C(O)CCC(NC(=O)NC(CCCCNC(=O)c1ccc([125I])cc1)C(=O)O)C(=O)O (stereo not shown) [^125I-YC27, 2-[3-[1-carboxy-5-(4-[^125I]iodo-benzoylamino)-pentyl]-ureido]-pentanedioic acid]
[1]
  specific uptake of the substrate: Only full-length and N-terminally truncated PSMA were able to specifically uptake the substrate

From patent publication US11124845B2, “PSMA-based molecular-genetic reporter system” (THE JOHNS HOPKINS UNIVERSITY, priority 2014, dated 2021)
